Our source for the EC50 and Kd values is patent US20260200890A1, “ADAR1 INHIBITORS AND METHODS OF USING THE SAME” (AVAMMUNE THERAPEUTICS INC., priority 2022, published 2026).

Bounds are passed on as bounds.

One assay addresses T1, ADAR1 (Homo sapiens, UniProt P55265).
T1 construct: endogenous in cells; host or cells: p110 KO A549 dual cells
T1 sequence (P55265 1-1226): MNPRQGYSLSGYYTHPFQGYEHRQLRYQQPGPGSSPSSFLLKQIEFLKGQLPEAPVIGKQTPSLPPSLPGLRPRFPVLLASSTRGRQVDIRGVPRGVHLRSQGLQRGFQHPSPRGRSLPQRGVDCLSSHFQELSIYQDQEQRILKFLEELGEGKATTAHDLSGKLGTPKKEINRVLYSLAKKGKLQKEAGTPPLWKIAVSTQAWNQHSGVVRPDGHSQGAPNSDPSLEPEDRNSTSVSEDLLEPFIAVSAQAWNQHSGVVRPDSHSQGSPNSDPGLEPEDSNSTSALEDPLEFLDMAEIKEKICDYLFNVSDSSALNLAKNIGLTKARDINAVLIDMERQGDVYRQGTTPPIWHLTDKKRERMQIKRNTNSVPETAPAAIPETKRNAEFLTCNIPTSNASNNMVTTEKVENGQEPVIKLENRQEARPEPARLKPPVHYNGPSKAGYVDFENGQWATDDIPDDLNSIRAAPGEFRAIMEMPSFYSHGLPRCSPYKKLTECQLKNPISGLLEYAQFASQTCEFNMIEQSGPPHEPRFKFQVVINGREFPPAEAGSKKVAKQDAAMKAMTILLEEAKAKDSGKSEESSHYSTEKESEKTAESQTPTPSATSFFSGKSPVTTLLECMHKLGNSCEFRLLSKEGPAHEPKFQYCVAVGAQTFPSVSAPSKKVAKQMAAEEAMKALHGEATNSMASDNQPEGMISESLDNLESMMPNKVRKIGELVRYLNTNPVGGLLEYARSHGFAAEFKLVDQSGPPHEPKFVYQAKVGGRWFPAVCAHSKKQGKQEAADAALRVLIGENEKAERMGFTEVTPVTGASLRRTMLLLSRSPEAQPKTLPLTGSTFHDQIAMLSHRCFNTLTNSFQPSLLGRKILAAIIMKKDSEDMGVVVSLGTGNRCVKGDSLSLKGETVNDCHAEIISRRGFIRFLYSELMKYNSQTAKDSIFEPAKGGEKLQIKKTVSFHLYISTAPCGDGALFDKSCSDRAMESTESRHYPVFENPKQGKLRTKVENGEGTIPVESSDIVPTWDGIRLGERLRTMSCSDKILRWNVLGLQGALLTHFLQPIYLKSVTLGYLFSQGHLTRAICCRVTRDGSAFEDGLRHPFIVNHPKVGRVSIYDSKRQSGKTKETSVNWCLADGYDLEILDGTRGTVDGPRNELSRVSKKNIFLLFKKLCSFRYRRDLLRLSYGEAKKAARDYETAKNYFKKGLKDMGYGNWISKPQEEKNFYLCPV
The assay is described as follows: ADAR1 Inhibition Assay (IFN fold-induction, Quanti-Luc luminescence, p110 KO A549 dual cells). Format: cell-based. The note with it: IFN fold-induction vs DMSO, 24 and 48 h. Put shortly: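 EC50 derived from IFN fold-induction, calculated as sample RLU over average DMSO RLU. Luminescence measured by Quanti-Luc on samples taken after 24 and 48 h of compound exposure (1% DMSO final, 37 °C, 5% CO2). Cells were p110 KO A549 dual, seeded at 20,000 per well in supplemented DMEM.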
As a reminder, the EC50 is the concentration giving half of the maximal effect. In the case of `CS(=O)(=O)Nc1cccc(C(=O)OCC(=O)Nc2sc(-c3ccccc3)cc2C#N)c1` [Compound 127], the EC50 was more than 100 µM.

The compound `CCOC(=O)c1cc(-c2ccccc2)sc1NC(=O)COC(=O)c1cccc(NS(=O)(=O)C2CC2)c1` [Compound 161] displayed an EC50 not above 25 µM.

For `CCOC(=O)c1cc(-c2ccccc2)sc1NC(=O)COC(=O)c1cccc(NS(C)(=O)=O)c1` [Compound 66, Ethyl 2-(2-((3-(methylsulfonamido)benzoyl)oxy)acetamido)-5-phenylthiophene-3-carboxylate], the EC50 was not above 25 µM.

As to `CCOC(=O)c1cc(-c2ccncc2)sc1NC(=O)COC(=O)c1cccc(NS(C)(=O)=O)c1` [Compound 170], the EC50 is more than 100 µM.

For the compound `CCOC(=O)c1cc(-c2ccc(N3CCNCC3)cc2)sc1NC(=O)COC(=O)c1cccc(NS(C)(=O)=O)c1` [Compound 198], the EC50 was more than 100 µM.

Consider `CCOC(=O)c1cc(-c2ccc(OC(F)(F)F)cc2)sc1NC(=O)COC(=O)c1cccc(NS(C)(=O)=O)c1` [Compound 100], for which the EC50 is more than 100 µM.

The compound `CCOC(=O)c1cc(-c2ccccc2)sc1NC(=O)CNC(=O)c1cccc(S(=O)(=O)N2CCNCC2)c1` [Compound 47] had an EC50 of more than 100 µM.

Regarding `CCOC(=O)c1cc(-c2ccccc2)sc1NC(=O)c1cccc(C#N)c1` [Compound 88], the EC50 was more than 100 µM.

The compound `CCOC(=O)c1cc(-c2cccc(OC(F)(F)F)c2)sc1NC(=O)COC(=O)c1cccc(NS(C)(=O)=O)c1` [Compound 202] gave an EC50 of more than 100 µM.

`CCOC(=O)c1cc(-c2ccccc2)sc1NC(=O)COC(=O)c1cccc(OS(C)(=O)=O)c1` [Compound 82] had an EC50 of more than 100 µM.

`CCOC(=O)c1cc(-c2ccccc2)sc1NC(=O)CCN(C(C)=O)c1cccc(N(C(C)=O)S(C)(=O)=O)c1` [Compound 237] had a concentration for a half-maximal effect (EC50) of more than 100 µM.

Regarding `CCOC(=O)c1ccsc1NC(=O)COC(=O)c1cccc(NS(C)(=O)=O)c1` [Compound 97], the EC50 is more than 100 µM.

`COC(=O)c1scc(-c2ccccc2)c1NC(=O)COC(=O)c1cccc(NS(C)(=O)=O)c1` [Compound 320] gave an EC50 of more than 100 µM.

`CCOC(=O)c1cc(-c2ccccc2)sc1NC(=O)NNC(=O)c1cccc(NS(C)(=O)=O)c1` [Compound 262] came in with an EC50 of more than 100 µM.

`CCOC(=O)c1cc(-c2ccccc2)sc1NC(=O)COC(=O)c1ccc(Cl)c(S(N)(=O)=O)c1` [Compound 74] displayed an EC50 of more than 100 µM.

For the compound `CCOC(=O)c1nc(-c2ccccc2)ccc1NC(=O)COC(=O)c1cccc(NS(C)(=O)=O)c1` [Compound 245], the EC50 is more than 100 µM.

`CCOC(=O)c1cc(-c2ccccc2)sc1NC(=O)c1cccc(-c2cccc(NS(C)(=O)=O)c2)c1` [Compound 252]: the EC50 was more than 100 µM.

For the compound `CCOC(=O)c1cccc2nc(NC(=O)COC(=O)c3cccc(NS(C)(=O)=O)c3)sc12` [Compound 236], the EC50 is more than 100 µM.

As for `CCOC(=O)c1cc(-c2ccccc2)sc1NC(=O)COC1CCN(S(C)(=O)=O)CC1` [Compound 160], the 50% effective concentration (EC50) is more than 100 µM.

The compound `CS(=O)(=O)Nc1cccc(C(=O)OCC(=O)n2cnc3cnc(N)nc32)c1` [Compound 200] had an EC50 of more than 100 µM.

On to `CCOC(=O)c1nc(-c2ccccc2)oc1NC(=O)COC(=O)c1cccc(NS(C)(=O)=O)c1` [Compound 145], for which the EC50 is more than 100 µM.

`CCOC(=O)c1cc(-c2ccc(N3CCOCC3)cc2)sc1NC(=O)COC(=O)c1cccc(NS(C)(=O)=O)c1` [Compound 135] displayed an EC50 of more than 100 µM.

Compound `CCOC(=O)c1cc(-c2ccccc2)sc1NC(=O)N1CCN(C(=O)c2cccc(NS(C)(=O)=O)c2)CC1` [Compound 167] yielded an EC50 of more than 100 µM.

On to `CS(=O)(=O)Nc1cccc(C(=O)OCC(=O)Nc2ncc(-c3ccccc3)cc2CO)c1` [Compound 259], for which the EC50 was more than 100 µM.

As for `CCOC(=O)c1cc(-c2ccccc2)sc1CC(=O)C1CCCN1C(=O)c1cccc(C#N)c1` (centres unmarked) [Compound 139], the EC50 was more than 100 µM.

For `CS(=O)(=O)Nc1cccc(C(=O)OCC(=O)Nc2sc(-c3ccccc3)cc2C(=O)OCC(=O)O)c1` [Compound 209], the EC50 is more than 100 µM.

For the compound `CCOC(=O)c1c(NC(=O)COC(=O)c2cccc(NS(C)(=O)=O)c2)sc(-c2ccccc2)c1C` [Compound 190], the EC50 was more than 100 µM.

Turning to `CCOC(=O)c1cc(-c2ccc(C(C)C)cc2)sc1NC(=O)COC(=O)c1cccc(S(N)(=O)=O)c1` [Compound 81], the EC50 is more than 100 µM.

As to `CCOC(=O)c1cc(-c2ccccc2)sc1NC(=O)CNC(=O)Cc1cccc(P(=O)(OCC)OCC)c1` [Compound 348], the EC50 was more than 100 µM.

In the case of `CCOC(=O)c1cc(-c2ccccc2)sc1NC(=O)COC(=O)c1cccc(S(=O)(=O)N2CCOCC2)c1` [Compound 58], the EC50 is more than 100 µM.

`CCOC(=O)c1cc(-c2ccccc2)sc1NC(=O)CCSc1cccc(NS(C)(=O)=O)c1` [Compound 324] displayed an EC50 of more than 100 µM.

`CCOC(=O)c1cc(-c2ccc3c(cnn3C)c2)sc1NC(=O)CNC(=O)Cc1cccc(NS(C)(=O)=O)c1` [Compound 335] gave an EC50 of more than 100 µM.

Take `CCOC(=O)c1sc(-c2ccccc2)cc1NC(=O)COC(=O)c1cccc(S(N)(=O)=O)c1` [Compound 423]: the EC50 was more than 100 µM.

`CCOC(=O)c1cc(-c2ccccc2)sc1NC(=O)COC(=O)c1ccc2ccn(S(C)(=O)=O)c2c1` [Compound 340] yielded an EC50 of more than 100 µM.

Take `CCOC(=O)c1cc(-c2ccccc2)sc1NC(=O)[C@H]1CCCN1C(=O)c1cccc(P(=O)(OCC)OCC)c1` [Compound 394]: the concentration for a half-maximal effect (EC50) was more than 100 µM.

As for `CCOC(=O)c1cc(-c2ccccc2)sc1NC(=O)C1CCCN1C(=O)c1cccc(P(=O)(OCC)OCC)c1` (centres unmarked) [Compound 383], the EC50 is more than 100 µM.

As for `NS(=O)(=O)c1cccc(C(=O)OCC(=O)Nc2ccc(-c3ccccc3)s2)c1` [Compound 78], the EC50 is more than 100 µM.

As for `CCOC(=O)c1cc(-c2ccccc2)sc1NC(=O)C(C)NC(=O)Cc1cccc(NS(C)(=O)=O)c1` (centres unmarked) [Compound 337], the half-maximal effective concentration (EC50) was more than 100 µM.

The compound `CCOC(=O)c1cc(Cc2ccccc2)sc1NC(=O)COC(=O)c1cccc(NS(C)(=O)=O)c1` [Compound 196] had an EC50 of more than 100 µM.

As for `CCOC(=O)c1cc(-c2ccccc2)sc1NC(=O)COC(=O)c1cccc(S(=O)(=O)N(C)C)c1` [Compound 7], the EC50 was more than 100 µM.

For a further assay, the target named is T2, Zα domain of ADAR1 p150 (Homo sapiens, UniProt P55265).
T2 construct: 10 μg/ml of Zα domain of ADAR1 was immobilized on CM5 chip using anti-HIS antibody; made in house
T2 sequence (P55265 133-199 limits assumed): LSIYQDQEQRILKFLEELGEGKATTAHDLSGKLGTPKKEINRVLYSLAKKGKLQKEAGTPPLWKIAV
Put plainly: SPR binding assay. The note with it: 6× his tag Zα domain immobilized on CM5 chip, analyte 0-25 μM. How it is done:
6× his tag Za domain of ADAR1 p150 was purified using bacterial purification system. Protein was isolated from supernatant of cell lysate using Ni-NTA resin. For binding assay using SPR, 10 μg/ml of Zα domain of ADAR1 was immobilized on CM5 chip using anti-HIS antibody. Binding was quantified using the following condition below: • Analyte: 25, 12.5, 6.25, 3.125, 1.56, 0.78, 0 μM • Contact time—60 seconds, • Dissociation time—320 seconds • Flow rate—30 μL/minute Running buffer-PBSP+5% DMSO • After curve fitting, Kd values for synthesized compounds was quantified using the instrument software.
(Surface plasmon resonance follows binding to a sensor surface in real time, without labels.)
The Kd is the constant that tells how readily two partners part at equilibrium. High values mean weaker binding, low ones tighter binding. Take `CS(=O)(=O)Nc1cccc(C(=O)OCC(=O)Nc2sc(-c3ccccc3)cc2C#N)c1` [Compound 127]: the Kd is not above 1 µM.

Turning to `CCOC(=O)c1cc(-c2ccccc2)sc1NC(=O)COC(=O)c1cccc(NS(=O)(=O)C2CC2)c1` [Compound 161], the Kd was more than 25 µM.

`CCOC(=O)c1cc(-c2ccccc2)sc1NC(=O)COC(=O)c1cccc(NS(C)(=O)=O)c1` [Compound 66, Ethyl 2-(2-((3-(methylsulfonamido)benzoyl)oxy)acetamido)-5-phenylthiophene-3-carboxylate] registered a Kd not above 1 µM.

With `CCOC(=O)c1cc(-c2ccccc2)sc1NC(=O)CNC(=O)CCc1cccc(P(=O)(O)O)c1` [Compound 432], the Kd is not above 1 µM.

For the compound `CCOC(=O)c1sc(-c2ccccc2)cc1NC(=O)CNC(=O)Cc1cccc(NS(C)(=O)=O)c1` [Compound 357], the Kd lay within 1 to 10 µM.

As to `CCOC(=O)c1cc(-c2ccccc2)sc1NC(=O)CNC(=O)CCc1cccc(P(=O)(OCC)OCC)c1` [Compound 436], the Kd is not above 1 µM.

The compound `CCOC(=O)c1cc(-c2ccccc2)sc1NC(=O)CN(C)C(=O)c1cccc(P(=O)(O)O)c1` [Compound 435] displayed a Kd not above 1 µM.

`CCOC(=O)c1cc(-c2ccccc2)sc1NC(=O)CNC(=O)c1cccc(C(=O)O)c1` [Compound 439] had a Kd not above 1 µM.

As to `CCNC(=O)c1cc(-c2ccccc2)sc1NC(=O)CNC(=O)c1ccc(P(=O)(OCC)OCC)cc1` [Compound 437], the Kd is not above 1 µM.

In turn, `CCOC(=O)c1cc(-c2ccccc2)sc1NC(=O)COC(=O)c1cccc(OS(=O)(=O)F)c1` [Compound 302] had a Kd not above 1 µM.
